Test results taken from patent US20070148184A1, “Survivin-derived peptides and use thereof” (priority 2003, published 2007).
Where two headings read alike, the source gives them in different places. No end group written: not given here.

Legend:
[1] = tested on: peptide epitope-specific interferon-γ releasing effector cells; experiment: IFN-γ ELISPOT, Example 4 (PBL or TIL from cancer patients); format: cell-based, human
Experimental: To extend the sensitivity of the ELISPOT assay, PBL were stimulated once in vitro prior to analysis. At day 0, PBL or crushed lymph nodes were thawed and plated as 2×10^6 cells in 2 ml/well in 24-well plates (Nunc, Roskilde, Denmark) in x-vivo medium (Bio Whittaker, Walkersville, Md.), […] heat-inactivated human serum, and 2 mM of L-glutamine in the presence of 10 μM of peptide. Two days later 20 IU/ml recombinant interleukin-2 (IL-2) (Chiron, Ratingen, Germany) was added to the cultures. The cultured cells were tested for reactivity in the ELISPOT on day 10.
The ELISPOT assay was used to quantify peptide epitope-specific interferon-γ releasing effector cells as previously described (16). Briefly, nitrocellulose bottomed 96-well plates (MultiScreen MAIP N45, Millipore, Hedehusene, Denmark) were coated with anti-IFN-γ antibody (1-D1K, Mabtech, Nacka, Sweden). The wells were washed, blocked by X-vivo medium, and the cells were added in duplicates at different cell concentrations. The peptides were then added to each well and the plates were incubated overnight. The following day, media was discarded and the wells were washed prior to addition of biotinylated secondary antibody (7-B6-1-Biotin, Mabtech). The plates were incubated for 2 hours, washed, and avidin-alkaline phosphatase conjugate (Calbiochem, Life Technologies, Inc. San Diego, Calif., USA) was added to each well. The plates were incubated at room temperature for one hour, washed, and the enzyme substrate NBT/BCIP (DakoCytomation Norden A/S, Glostrup, Denmark) was added to each well and incubated at RT for 5-10 min. Upon the emergence of dark purple spots, the reaction was terminated by washing with tap-water. The spots were counted using the ImmunoSpot® Series 2.0 Analyzer (CTL Analyzers, LLC, Cleveland, US) and the peptide specific CTL frequency could be calculated from the numbers of spot-forming cells. All assays were performed in duplicates for each peptide antigen.

HLA-A3 = HLA-A3 (Homo sapiens, UniProt P04439); experiment: Assembly assay, HLA-A3; format: binding; settings: for EC50: Table 4, HLA-A3, read-out: C50
Experimental: (§1) The binding affinity of synthetic peptides (Invitrogen, Carlsbad, Calif., USA) to HLA-A1, -A2, A3, or -A11 molecules metabolically labeled with [^35S]-methionine was measured in the assembly assay, as described previously (12). The assay is based on peptide-mediated stabilization of empty HLA molecules released upon cell lysis, from the TAP-deficient cell lines. Stably folded HLA-molecules were immune-precipitated using the HLA class I-specific, conformation-dependent mAb W6/32, and separated by isoelectric focusing (IEF) gel electrophoresis. MHC heavy chain bands were quantified using the ImageGauge Phosphorimager program (FUJI photo film Co., Carrollton, Tex., USA). The intensity of the band is proportional to the amount of peptide-bound class I MHC complex recovered during the assay. Subsequently, the extent of stabilization of the HLA-molecule is directly related to the binding affinity of the added peptide. The peptide concentration used to analyze the recovery of the HLA-molecules was 40, 4, 0.4, 0.04 μM for HLA-A1 and HLA-A11, and 100, 10, 1, 0.1, 0.01 μM for HLA-A2 and HLA-A3. The C50 value was subsequently calculated for each peptide as the peptide concentration sufficient for half maximal stabilization.

HLA-A1 = target: T1, HLA-A1 (Homo sapiens, UniProt P04439, A114D/A174V/A182V/D101N/D185E/E176A/E190D/L180R/Q94H/R68K/S129P/T187R/V100A/V91M/W191G); experiment: Assembly assay, HLA-A1; format: binding; settings: for EC50: Table 4, HLA-A1, read-out: C50
T1 construct: empty HLA molecules released upon cell lysis, from the TAP-deficient cell lines; endogenous in cells; host or cells: BM36.1 (TAP-defective cell line expressing HLA-A*0101 and HLA-B*3501)
Experimental: as §1

HLA-A11 = HLA-A11 (Homo sapiens, UniProt P04439, A114D/D185E/E176A/F33Y/L180Q/S129P/T187R); experiment: Assembly assay, HLA-A11; format: binding
Experimental: as §1

HLA-B7 = HLA-B7 (Homo sapiens, UniProt P01889); experiment: Assembly assay, HLA-B7; format: binding
Experimental: as §1
Binding of survivin derived peptides to HLA-B7 The amino acid sequence of the survivin protein was screened for peptides of nine to ten amino acids, with anchor residues according to the peptide binding motif of HLA-B7. Five peptides were selected and analyzed for their ability to stabilize HLA-B7 in the assembly assay. C50 values were estimated for each peptide as the peptide concentration needed for half maximal stabilization of HLA-B7 (table 4).

[2] = HLA-A3, nine samples from melanoma patients (five PBL and four TIL)

CC[C@H](C)[C@H](NC(=O)[C@@H](N)CCCNC(=N)N)C(=O)N[C@@H](CO)C(=O)N[C@H](C(=O)N[C@@H](Cc1ccccc1)C(=O)N[C@@H](CCCCN)C(=O)N[C@@H](CC(N)=O)C(=O)N[C@@H](Cc1c[nH]c2ccccc12)C(=O)N1CCC[C@H]1C(=O)N[C@@H](CCCCN)C(=O)O)[C@@H](C)O [Sur18K10]
ELISPOT response [1, 2]: CTL reactivity was detected | responding patients ([1]; HLA-A3, twenty-seven melanoma patients analyzed): six | binding to HLA-A3, in words (HLA-A3): high affinity | EC50 (HLA-A3): 20 nM

CC[C@H](C)[C@H](NC(=O)[C@H](Cc1ccccc1)NC(=O)CNC(=O)[C@H](C)NC(=O)[C@H](CCC(=O)O)NC(=O)[C@H](C)NC(=O)[C@@H](N)CCSC)C(=O)N[C@@H](Cc1c[nH]cn1)C(=O)N[C@@H](Cc1ccc(O)cc1)C(=O)O [Sur38Y9]
EC50 (HLA-A1): 800 nM

CC(C)C[C@H](NC(=O)[C@H](CC(=O)O)NC(=O)[C@@H]1CCCN1C(=O)[C@H](CCC(=O)O)NC(=O)[C@H](CC(N)=O)NC(=O)[C@H](CCC(=O)O)NC(=O)[C@@H](NC(=O)[C@@H]1CCCN1)[C@@H](C)O)C(=O)N[C@@H](C)C(=O)N[C@@H](Cc1ccc(O)cc1)C(=O)O [Sur47Y10]
EC50 (HLA-A1): 400 nM

CC(C)C[C@H](NC(=O)[C@@H](N)CC(C)C)C(=O)N[C@@H](CCC(N)=O)C(=O)N[C@@H](CS)C(=O)N[C@@H](Cc1ccccc1)C(=O)N[C@@H](Cc1ccccc1)C(=O)N[C@@H](CS)C(=O)N[C@@H](Cc1ccccc1)C(=O)N[C@@H](CCCCN)C(=O)O [Sur54L2]
ELISPOT response [1, 2]: No responses were detected | binding to HLA-A3, in words (HLA-A3): high affinity

CC(C)C[C@H](NC(=O)[C@H](CCC(=O)O)NC(=O)[C@H](CCC(=O)O)NC(=O)[C@H](Cc1ccccc1)NC(=O)[C@@H](N)CCC(N)=O)C(=O)N[C@H](C(=O)N[C@@H](CC(C)C)C(=O)NCC(=O)N[C@@H](CCC(=O)O)C(=O)N[C@@H](Cc1ccccc1)C(=O)O)[C@@H](C)O [Sur92-101]
binding to HLA-A1, in words (HLA-A1): bound with almost similar high affinity as a known positive control epitope | EC50 (HLA-A1): 2000 nM | ELISPOT response ([1]; HLA-A1, Mel.A1-2): showed responses | ELISPOT response ([1]; HLA-A1, Mel.A1-3, PBL): T-cell response

CC(C)C[C@H](NC(=O)[C@H](CCC(=O)O)NC(=O)[C@H](CCC(=O)O)NC(=O)[C@H](CO)NC(=O)[C@@H](N)CCC(N)=O)C(=O)N[C@H](C(=O)N[C@@H](CC(C)C)C(=O)NCC(=O)N[C@@H](CCC(=O)O)C(=O)N[C@@H](Cc1ccccc1)C(=O)O)[C@@H](C)O [Sur92S2]
EC50 (HLA-A1): 100000 nM

CC(C)C[C@H](NC(=O)[C@H](CCC(=O)O)NC(=O)[C@H](CCC(=O)O)NC(=O)[C@@H](NC(=O)[C@@H](N)CCC(N)=O)[C@@H](C)O)C(=O)N[C@H](C(=O)N[C@@H](CC(C)C)C(=O)NCC(=O)N[C@@H](CCC(=O)O)C(=O)N[C@@H](Cc1ccccc1)C(=O)O)[C@@H](C)O [Sur92T2]
EC50 (HLA-A1): 2000 nM

CC(C)C[C@H](NC(=O)[C@H](CCC(=O)O)NC(=O)[C@H](CCC(=O)O)NC(=O)[C@@H](N)Cc1ccccc1)C(=O)N[C@H](C(=O)N[C@@H](CC(C)C)C(=O)NCC(=O)N[C@@H](CCC(=O)O)C(=O)N[C@@H](Cc1ccccc1)C(=O)O)[C@@H](C)O [Sur93-101]
binding to HLA-A1, in words (HLA-A1): low binding affinity | EC50 (HLA-A1): > 100000 nM | ELISPOT response ([1]; HLA-A1, ten melanoma patients, data not shown): no peptide-specific responses were detected

CC(C)C[C@H](NC(=O)[C@H](CCC(=O)O)NC(=O)[C@H](CO)NC(=O)[C@@H](N)Cc1ccccc1)C(=O)N[C@H](C(=O)N[C@@H](CC(C)C)C(=O)NCC(=O)N[C@@H](CCC(=O)O)C(=O)N[C@@H](Cc1ccccc1)C(=O)O)[C@@H](C)O [Sur93S2]
EC50 (HLA-A1): 30000 nM

CC(C)C[C@H](NC(=O)[C@H](CCC(=O)O)NC(=O)[C@@H](NC(=O)[C@@H](N)Cc1ccccc1)[C@@H](C)O)C(=O)N[C@H](C(=O)N[C@@H](CC(C)C)C(=O)NCC(=O)N[C@@H](CCC(=O)O)C(=O)N[C@@H](Cc1ccccc1)C(=O)O)[C@@H](C)O [Sur93T2]
binding to HLA-A1, in words (HLA-A1): bound with high affinity | EC50 (HLA-A1): 1000 nM | ELISPOT response ([1]; HLA-A1, Mel.A1-2): showed responses | ELISPOT response ([1]; HLA-A1, Mel.A1-3, PBL): T-cell response | ELISPOT response ([1]; HLA-A1, Mel.A1-4/PBL): responses were observed

CC(C)C[C@H](NC(=O)[C@@H](N)CC(=O)O)C(=O)N[C@@H](C)C(=O)N[C@@H](CCC(N)=O)C(=O)N[C@@H](CS)C(=O)N[C@@H](Cc1ccccc1)C(=O)N[C@@H](Cc1ccccc1)C(=O)N[C@@H](CS)C(=O)N[C@@H](Cc1ccccc1)C(=O)N[C@@H](CCCCN)C(=O)O [Sur 53-62]
ELISPOT response [1, 2]: no immune responses | ELISPOT response ([1]; HLA-A11, Mel.A11-1, five blood samples over two years, data not shown): strong immune response | ELISPOT response ([1]; HLA-A11, PBL from Mel.A11-1 and Mel.A11-2): detect responses | ELISPOT response ([1]; HLA-A11, TIL from tumor infiltrated lymph node, Mel.A11-2): able to detect Sur53-62 specific T-cells | binding to HLA-A3, in words (HLA-A3): bound weakly | binding to HLA-A11, in words (HLA-A11): high affinity

CC(C)C[C@H](N)C(=O)N[C@@H](C)C(=O)N[C@@H](CCC(N)=O)C(=O)N[C@@H](CS)C(=O)N[C@@H](Cc1ccccc1)C(=O)N[C@@H](Cc1ccccc1)C(=O)N[C@@H](CS)C(=O)N[C@@H](Cc1ccccc1)C(=O)N[C@@H](CCCCN)C(=O)O [Sur 54-62]
binding to HLA-A11, in words (HLA-A11): high affinity

CC(C)C[C@H](NC(=O)[C@H](Cc1ccccc1)NC(=O)[C@H](CCC(=O)O)NC(=O)CNC(=O)[C@H](CC(C)C)NC(=O)[C@@H](NC(=O)[C@H](CC(C)C)NC(=O)[C@@H](N)CCC(=O)O)[C@@H](C)O)C(=O)N[C@@H](CCCCN)C(=O)O [Sur 95-103]
ELISPOT response [1, 2]: no immune responses | binding to HLA-A3, in words (HLA-A3): bound weakly | EC50 (HLA-A3): > 100000 nM

CC[C@H](C)[C@H](NC(=O)[C@@H](N)CCCCN)C(=O)N[C@@H](C)C(=O)N[C@@H](CCCCN)C(=O)N[C@@H](CCC(=O)O)C(=O)N[C@H](C(=O)N[C@@H](CC(N)=O)C(=O)N[C@@H](CC(N)=O)C(=O)N[C@@H](CCCCN)C(=O)O)[C@@H](C)O [Sur 112-120]
ELISPOT response [1, 2]: no immune responses | binding to HLA-A3, in words (HLA-A3): high affinity | EC50 (HLA-A3): 2000 nM | binding to HLA-A11, in words (HLA-A11): high affinity | EC50 (HLA-A11; Table 4, HLA-A11, read-out: C50): 1000 nM

CPTENEPDL [Sur46-54]
C50 (half maximal stabilization of HLA-B7) (HLA-B7; Example 4): did not bind | EC50 (HLA-B7; Table 4, HLA-B7, read-out: C50): > 100000 nM

ENEPDLAQCF [Sur49-58]
binding to HLA-A1, in words (HLA-A1): non-binding

EPDLAQCFF [Sur51-59]
C50 (half maximal stabilization of HLA-B7) (HLA-B7; Example 4): did not bind | EC50 (HLA-B7; Table 4, HLA-B7, read-out: C50): > 100000 nM

LPPAWQPFL [Sur6-14]
EC50 (HLA-B7; Example 4, read-out: C50 (half maximal stabilization of HLA-B7)): > 100000 nM | EC50 (HLA-B7; Table 4, HLA-B7, read-out: C50): > 100000 nM

QPRAPIRPI [C6, reference compound]
EC50 (HLA-B7): 100 nM

RPPIFIRRL [C7, reference compound]
EC50 (HLA-B7): 500 nM
